From ChEMBL document CHEMBL1201862, “PubChem BioAssay data set” (2004) come the findings set out here.

SMILES strings stand for the structures. The source made the active and inactive calls. Rule as the data show it, for most assays here: actives have a measured EC50 and inactives only a lower limit.

Test [1] can be described thus: Trypanosoma cruzi growth suppression in host cells – NIH3T3 host cells, beta-gal luminescence, confirmation (AID 2044).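 Also: intracellular parasites grown in NIH/3T3 mouse fibroblasts as host cells; luminescent beta-galactosidase reporter signal from transgenic T. cruzi replicating inside host cells; inhibitors lower the luminescence signal.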 The test is classed as functional, cell-based.
A short description of test [2]: NIH3T3 cell viability loss – ATP luminescence, mouse fibroblasts, counter-screen, dose response (AID 2010).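 Also: cells exposed to compound for about 90 hours before reading.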 The test is classed as functional, cell-based.
A short description of test [3]: viability of uninfected HEp-2 cells – cell-based, HTS, cytotoxicity control for RSV inhibitor project, dose response (AID 2410). The test is classed as functional. The note with it: human respiratory syncytial virus.

On to `Cc1cccc(NS(=O)(=O)c2cc(C(=O)N3CCc4ccccc4C3)ccc2Cl)c1C`, for which the figures for the EC50 in test [1] and in test [2] were 2.18 µM (active) and > 60 µM (not active), respectively.

On to `CN(C)CCCN(C(=O)c1cccs1)c1nc2cc3c(cc2s1)OCO3`, for which the EC50 (in general, the concentration at which the effect is half-maximal) in test [1] is 0.163 µM (active); in test [2], > 60 µM (inconclusive).

As for `Cc1nc(N2CCOCC2)nc(N2CCCCC2C)c1[N+](=O)[O-]` (centres undefined), in test [3], the CC50 (usually the concentration giving 50% cytotoxicity) is 21.9 µM (active).

`CCn1c(N=C(S)Nc2ccccc2)nc2ccccc21`: the values for the EC50 in test [1] and in test [2] were 0.53 µM (active) and > 60 µM (inconclusive), respectively.

Take `CSc1ccccc1OCc1cc(C(=O)N(C)C2CCCc3ccccc32)no1` (centres undefined): the CC50 in test [3] is 20.4 µM (active).

As to `Oc1ccc(N2CCN(Cc3ccc(OCCCN4CCCCC4)cc3)CC2)cc1`, the EC50 in test [1] is 0.114 µM (active); in test [2], > 30 µM (not active).

Consider `CCc1noc(C)c1C(=O)Nc1ccc(S(=O)(=O)N2CCC(C)CC2)cc1`, for which the CC50 in test [3] was 32.9 µM (active).

As to `COC(=O)c1ccc(-c2sc3nc(N4CCOCC4)c4c(c3c2N)CCCC4)o1`, the results for the concentration giving a half-maximal response (EC50) in test [1] and in test [2] were 2.63 µM (active) and 13.2 µM (active), respectively.

For `COc1ccccc1CCNC1CCC(C(C)(C)C)CC1` (centres undefined), the results for the EC50 in test [1] and in test [2] were 1.37 µM (active) and > 60 µM (not active), respectively.

`COc1ccc2nc(Nc3ccccc3)sc2c1`: the CC50 in test [3] was 33.6 µM (active).

On to `O=C(c1ccco1)N(CCCN1CCOCC1)c1nc(-c2ccc(Cl)cc2)cs1`, for which the EC50 is 1.8 µM (active) in test [1] and > 60 µM (not active) in test [2].

Regarding `Cc1n[nH]c(-c2ccc(OCc3cnn(-c4ccccc4)c3)cc2O)c1Oc1ccc(Cl)cc1`, the EC50 in test [1] was 2.43 µM (active); in test [2], > 60 µM (not active).

In the case of `COC(=O)C1Cc2c([nH]c3ccccc23)C2(CCN(Cc3ccccc3)CC2)N1` (centres undefined), the EC50 in test [1] is 1.6 µM (active); in test [2], 10.1 µM (active).

With `COc1cccc(CNc2ccc3c(c2)CCC3)c1`, the figures for the EC50 in test [1] and in test [2] were 7.93 µM (active) and > 60 µM (not active), respectively.

For `CN1c2ccccc2Oc2nnc(Cl)cc21`, the cytotoxic concentration (CC50) in test [3] was 43.3 µM (active).

Regarding `O=[N+]([O-])c1nn(-c2ccc3c(c2)OCCO3)[n+]([O-])c1NCCCO`, the EC50 was 0.75 µM (active) in test [1] and > 60 µM (not active) in test [2].

`COc1ccc(C(=O)/C=C/c2ccc(F)cc2)c(OC(=O)c2ccc([N+](=O)[O-])cc2)c1`: in test [3], the CC50 was 20.5 µM (active).

Consider `Cc1cc(C)c(S(=O)(=O)c2ccccc2Cl)c(Cl)n1`, for which the figures for the half-maximal effective concentration (EC50) in test [1] and in test [2] were 2.32 µM (active) and > 60 µM (not active), respectively.

Consider `COc1ccccc1/C=C/[C@@H]1C[C@H]2CN(Cc3cccc(Cl)c3)C(=O)[C@]23CCCN13`, for which the CC50 in test [3] is 38.4 µM (active).

On to `Cc1ccc2nc(-c3ccncc3)cc(C(=O)NCCc3ccc(F)cc3)c2c1`, for which the EC50 was 1.7 µM (active) in test [1] and > 60 µM (not active) in test [2].

As to `Cc1ccc(Nc2c([N+](=O)[O-])nn(-c3ccc(Cl)cc3)[n+]2[O-])cc1C`, the figures for the EC50 in test [1] and in test [2] were 0.747 µM (active) and > 60 µM (not active), respectively.

In the case of `CCCCc1c(O)nc2ccc(C)cc2c1C`, the CC50 in test [3] is 26.6 µM (active).

Take `CN(C)c1oc(-c2ccc(OCc3ccc(Cl)cc3)cc2)nc1C#N`: the figures for the half-maximal effective concentration (EC50) in test [1] and in test [2] were 8.31 µM (active) and > 60 µM (not active), respectively.

Consider `O=C1NC(=O)/C(=C/c2cccc([N+](=O)[O-])c2)N1`, for which, in test [3], the CC50 is 31.2 µM (active).

As for `Cc1ccc(-c2ccc(/C=N\NC(=O)C3C(=O)NCC3c3ccccc3)o2)cc1Cl` (centres undefined), the CC50 in test [3] is 13 µM (active).

Turning to `O=C(N/N=C/c1ccc([N+](=O)[O-])o1)C1CCCC1`, the EC50 in test [1] was 0.429 µM (active); in test [2], > 60 µM (not active).

For the compound `C/C(=N\NC(=O)c1cc(-c2cccc(OC(C)C)c2)nc2ccccc12)c1cccnc1`, the values for the EC50 in test [1] and in test [2] were 0.611 µM (active) and > 30 µM (not active), respectively.
